Assay results from article PMC7059139, “Inhibiting MARSs reduces hyperhomocysteinemia‐associated neural tube and congenital heart defects” (EMBO Molecular Medicine, 2020).

Key:
[1] = target: T1, MARS (methionyl-tRNA synthetase) (Homo sapiens, UniProt P56192); assay: in vitro HTL production from Hcy ([…]), thin layer chromatography; type: biochemical
T1 construct: gene MARS1; Flag-tagged, cDNA NM_004990.3
T1 sequence (P56192 1-900): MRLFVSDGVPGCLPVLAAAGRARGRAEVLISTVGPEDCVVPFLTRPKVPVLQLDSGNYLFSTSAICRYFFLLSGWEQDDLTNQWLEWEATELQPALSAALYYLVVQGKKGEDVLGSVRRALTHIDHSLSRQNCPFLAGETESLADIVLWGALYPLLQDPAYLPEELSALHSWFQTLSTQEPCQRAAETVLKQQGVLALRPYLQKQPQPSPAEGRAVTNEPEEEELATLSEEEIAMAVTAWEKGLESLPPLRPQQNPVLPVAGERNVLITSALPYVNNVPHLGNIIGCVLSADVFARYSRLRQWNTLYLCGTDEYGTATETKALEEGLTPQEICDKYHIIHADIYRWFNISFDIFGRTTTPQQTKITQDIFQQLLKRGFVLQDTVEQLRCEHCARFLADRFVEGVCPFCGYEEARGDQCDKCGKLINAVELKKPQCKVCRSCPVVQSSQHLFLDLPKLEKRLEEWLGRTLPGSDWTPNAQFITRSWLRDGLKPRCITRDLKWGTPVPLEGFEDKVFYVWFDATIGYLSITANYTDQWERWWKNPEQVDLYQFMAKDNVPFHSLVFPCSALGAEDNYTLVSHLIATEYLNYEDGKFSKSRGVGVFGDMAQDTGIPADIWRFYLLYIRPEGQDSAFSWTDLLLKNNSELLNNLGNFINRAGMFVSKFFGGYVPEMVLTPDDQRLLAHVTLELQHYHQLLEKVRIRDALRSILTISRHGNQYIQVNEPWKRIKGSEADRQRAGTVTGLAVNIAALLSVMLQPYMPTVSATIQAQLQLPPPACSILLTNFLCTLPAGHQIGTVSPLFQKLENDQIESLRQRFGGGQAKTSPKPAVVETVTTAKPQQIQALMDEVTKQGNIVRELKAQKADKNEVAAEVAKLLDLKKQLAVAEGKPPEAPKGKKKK

MARS2 = target: T2, MARS2 (Mus musculus, UniProt Q499X9); assay: as above; type: biochemical
T2 construct: Flag-tagged, cDNA NM_175439.3
T2 sequence (Q499X9 47-586): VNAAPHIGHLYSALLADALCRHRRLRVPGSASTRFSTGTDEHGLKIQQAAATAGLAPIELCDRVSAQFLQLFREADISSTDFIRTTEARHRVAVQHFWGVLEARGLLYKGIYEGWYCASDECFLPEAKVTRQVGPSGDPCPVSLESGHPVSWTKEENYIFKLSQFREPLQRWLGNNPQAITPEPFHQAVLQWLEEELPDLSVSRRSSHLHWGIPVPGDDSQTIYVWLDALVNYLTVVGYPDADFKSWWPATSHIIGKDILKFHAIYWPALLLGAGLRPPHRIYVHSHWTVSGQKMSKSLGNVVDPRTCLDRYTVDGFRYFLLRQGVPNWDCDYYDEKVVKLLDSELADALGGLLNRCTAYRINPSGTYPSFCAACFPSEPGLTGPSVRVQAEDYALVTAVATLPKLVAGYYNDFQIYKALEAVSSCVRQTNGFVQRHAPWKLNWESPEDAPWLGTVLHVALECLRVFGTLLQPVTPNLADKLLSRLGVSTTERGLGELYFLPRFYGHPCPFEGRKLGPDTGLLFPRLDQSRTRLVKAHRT

IC50 [1]: 36 µM
IC50 (MARS2): 40 µM
SMILES: NC(=O)CSCCC(N)C(=O)O (racemic) [compound 5, AHT]
